According to patent US20230234897A1, “USE OF POLYAMINES, TYRAMINE AND/OR A PLANT EXTRACT CONTAINING SAME TO STABILISE MICROORGANISMS” (AGRO INNOVATION INTERNATIONAL, priority 2020, published 2023):

Test system: Azotobacter chroococcum
Experiment: Growth of Azotobacter chroococcum with or without osmotic stress (0.3 M NaCl), glycine betaine versus extract
Assay type: cell-based
Conditions: for Bacterial concentration at 72 h / Survival rate relative to the strain under non-stressing conditions without addition of the extract / Survival rate relative to the strain under salt stress conditions, without addition of the extract: extract at 10 g of polyamines/kg of medium, glycine betaine quantity not given
Description: The effect of each of the extracts prepared according to example 1a), 1b) or 1c) was studied on the growth of various bacterial strains, under conditions with or without thermal stress, osmotic stress or acid/base stress. The extracts obtained in examples 1a), 1b) or 1c) were added to a culture medium in different quantities, in order to obtain the desired quantities of polyamines and/or tyramine.
The study was carried out in Spizizen Minimal Medium SMM culture broth ((NH4)2SO4: 2 g/L, K2HPO4: 14 g/L, KH2PO4: 6 g/L, MgSO4: 0.2 g/L, C6H5Na3O7·2H2O: 1 g/L, D-glucose: 5 g/L).
The starting inoculate for each strain was calibrated by OD measurement (620 nm) in order to obtain an initial concentration of approximately 10^3-10^4 CFU/mL. The strains were incubated for 24 to 72 h. Counts were performed in TSA agar (Tryptone Soya Agar) at TO and after 24 h, 48 h or 72 h incubation at 30° C. (+/−1° C.), according to the studied strains.
For each of the strains, the survival rate in the presence of the extract and/or stress was calculated relative to the bacterial concentration obtained at the end of the kinetics (at T=24 h, 48 h or 72 h) in the control mode containing the strain alone, under non-stressed conditions, without adding the extract. Similarly, the survival rate in the presence or absence of the extract and/or stress was calculated relative to the bacterial concentration obtained at the end of the kinetics in the mode containing the strain alone, under stress conditions, without adding the extract.
The strain Azotobacter chroococcum was tested under osmotic stress conditions, in other words by adding 0.3 M NaCl to the culture medium at time T=0.
The glycine betaine, known as an osmoprotectant, was tested in comparison with the Ascophyllum nodosum extract prepared according to example 1a).

[1] = non-stressing conditions (no NaCl), 72 h

Q: Which results are given for `C[N+](C)(C)CC(=O)[O-]` [glycine betaine]?
A: Bacterial concentration at 72 h [1]: 1.1 · 10^8 CFU/mL; Survival rate relative to the strain under non-stressing conditions without addition of the extract [1]: 0.3 log; Survival rate relative to the strain under salt stress conditions, without addition of the extract [1]: 5.1 log; stabilisation of Azotobacter chroococcum under osmotic stress (osmotic stress 0.3 M NaCl): no stabilisation is observed; loss in the bacterial concentration after 72 h incubation relative to the stress conditions (salt stress 0.3 M NaCl, 72 h): 0.8 logs; Bacterial concentration at 72 h (salt stress 0.3 M NaCl, 72 h): 1.4 · 10^2 CFU/mL; Survival rate relative to the strain under non-stressing conditions without addition of the extract (salt stress 0.3 M NaCl, 72 h): −5.6 log; Survival rate relative to the strain under salt stress conditions, without addition of the extract (salt stress 0.3 M NaCl, 72 h): −0.8 log
